From patent publication US20080027104A1, “Novel Crystalline Forms 2” (AstraZeneca AB, priority 2006, published 2008) come the findings set out here.

SMILES strings stand for the structures.

Common to all, as to type: physicochemical
Series [1] in a line: Thermogravimetric analysis of crystalline form. The note with it: range from 25° C. up to 205° C. The procedure:
(§1) The crystalline forms may be further characterised by the presence of one or more of the additional properties listed below: • (i) for Form I • (I) when characterised by thermogravimetric analysis, a weight loss of approx. 0.8% occurs in the range from 25° C. up to 205° C., and/or • (II) when characterised by differential scanning calorimetry, at a heating rate of 10° C. per minute in a closed cup with a pinhole under flowing nitrogen, a melting temperature (Tm) having an onset at about 194° C. and/or an associated endotherm of melting of about 96 J/g; and/or • (III) when stored at 80% RH (ambient) less than 0.2% moisture is adsorbed. • (i) for Form II • (I) when characterised by thermogravimetric analysis, a weight loss of approx. 0.2% occurs in the range from 25° C. up to 205° C., and/or • (II) when characterised by differential scanning calorimetry, at a heating rate of 10° C. per minute in a closed cup with a pinhole under flowing nitrogen, a melting temperature (Tm) having an onset at about 193° C. and/or an associated endotherm of melting of about 105 J/g.

Series [2] is described as follows: Moisture adsorption on storage at 80% RH. The note with it: stored at 80% RH (ambient). The procedure:
as §1

The nature of series [3]: Thermodynamic stability of crystal form. As to conditions: crystallised from THF/ethanol.

Take `CCOC(=O)c1cc(C#N)c(N2CCC(C(=O)NS(=O)(=O)Cc3ccccc3)CC2)nc1C` [Form I, 6-(4-{[(benzylsulfonyl)amino]carbonyl}piperidin-1-yl)-5-cyano-2-methylnicotinic acid ethyl ester]: the “weight loss by thermogravimetric analysis” value in series [1] is on record as “approx. 0.8%”. In addition, the moisture adsorbed entry in series [2] is recorded as “less than 0.2%”.
On to `CCOC(=O)c1cc(C#N)c(N2CCC(C(=O)NS(=O)(=O)Cc3ccccc3)CC2)nc1C` [Form II, 6-(4-{[(benzylsulfonyl)amino]carbonyl}piperidin-1-yl)-5-cyano-2-methylnicotinic acid ethyl ester], for which the “thermodynamic stability of crystal form” value in series [3] is on record as “thermodynamically stable form”. For the same compound, the “weight loss by thermogravimetric analysis” value in series [1] is listed as “approx. 0.2%”.
